Measured values taken from ChEMBL document CHEMBL1153942, “Design and efficient synthesis of novel ascorbyl conjugated peptide with high collagen biosynthesis stimulating effects” (Bioorg Med Chem Lett, 2009).
Active and inactive are the calls of the source. The rule behind the calls is not given here. Residues, ends and D or L forms follow the SMILES beside them. *: point of attachment. X1 = O=C(CCC(=O)*)OCC(O)C1OC(=O)C(O)=C1O; Palmitoyl = CCCCCCCCCCCCCCCC(=O)*

How the values were obtained:
HDF [1] = assay: Stimulation of collagen biosynthesis in primary cultured neonatal HDF at 1 to 1000 uM after 72 hrs by ELISA in presence of fetal bovine serum; type: functional, cell-based; details: Homo sapiens
[2] = Cytotoxicity against HDF at >100 uM; type: cell-based; details: human
HDF [3] = assay: Stimulation of collagen biosynthesis in primary cultured neonatal HDF at 100 uM after 72 hrs by ELISA in presence of fetal bovine serum; type: functional, cell-based; details: Homo sapiens
[4] = Stability in rat skin homogenates; type: ADME, tissue-based, Zone of skin; details: read-out: Stability
[5] = Stability in rat skin homogenates assessed as compound remain after 6 hrs; type: ADME, tissue-based, Zone of skin; details: read-out: Stability

Compound	Activity (HDF [1])	Activity [2]	Activity (HDF [3])	half-life [4]	remaining at 6 h [5]
O=C1O[C@H]([C@@H](O)CO)C(O)=C1O	inactive	–	–	–	–
CCCCCCCCCCCCCCCC(=O)N[C@@H](CCCCN)C(=O)N[C@H](C(=O)N[C@H](C(=O)N[C@@H](CCCCN)C(=O)N[C@@H](CO)C(=O)O)[C@@H](C)O)[C@@H](C)O (Palmitoyl-KTTKS-OH)	–	Active	Active	–	–
C[C@@H](O)[C@H](NC(=O)[C@H](CCCCN)NC(=O)CCC(=O)OCC(O)C1OC(=O)C(O)=C1O)C(=O)N[C@H](C(=O)N[C@@H](CCCCN)C(=O)N[C@@H](CO)C(=O)O)[C@@H](C)O (some centres not stated) (X1-KTTKS-OH)	Active	–	–	> 6 h	< 10%
H-KTTKS-OH	inactive	–	–	–	–
